From patent US4265882A, “Sulphur analogs of penicillins having a nucleophile substituted in the 6 and 7 position, respectively” (Massachusetts Institute of Technology, priority 1977, dated 1981)

Key:
[1] = tested on: Bacillus subtillis ATCC 6051; assay: Minimum inhibitory concentration in vitro, Bacillus subtillis; assay type: cell-based; parameters: unit not given here; details: free acids tested after removal of ester protective group
Method: (§1) General Procedure for Removing Protective Groups
(§2) The ester (100-200 mg) is dissolved in approx. 10 ml of 90% HOAc and the solution cooled to 0° before 1-1.5 g of zinc dust is added. The mixture is stirred at 0° for 3-5 hr. Removal of the zinc by filtration through celite into a flask containing 100 ml of ice-H2 O and washing the zinc with methylene chloride (50 ml) yielded a two-phase system. Separation of the organic layer, extraction of the aqueous layer with several methylene chloride-zinc washings, drying (MgSO4) and removal of the solvent under reduced pressure (no heat) afforded the free acid.
(§3) For purification (if required) the acid was dissolved in CH2 Cl2 and extracted with aqueous NaHCO3. The aqueous layer, after being extracted several times with CH2 Cl2, was cooled with ice and acidified with dilute HCl. Extraction with CH2 Cl2, drying (MgSO4) and removal of the solvent under reduced pressure (no heat) gave the pure acid.
(§4) A flask, charged with the ester, is submerged in an ice bath 5-10 min. before cold trifluoroacetic acid is added. The solution is stirred at 0° for 30-45 min. and then the solvent removed by distillation under reduced pressure (2-3 mm) with the reaction flask still submerged in the ice bath. The residue is freeze dried from benzene.
If purification is required, it is done in the same manner as described for removal of the trichloroethyl group (see above).
The benzhydryl group is removed in the same manner as described for the removal of the t-butyl group, above. After freeze drying the residue was purified in the following manner. The acid was dissolved in methylene chloride and extracted with aqueous NaHCO3. The aqueous layer, after being extracted several times with methylene chloride, was partitioned with methylene chloride, cooled with ice, and acidified with dilute HCl. Extraction with methylene chloride, drying (MgSO4), and removal of the solvent under reduced pressure (no heat) gave the pure acid.
In order to remove the protective benzyhydryl group from benzyhydryl-6β-(triophene-2-acetylthio)-6α-methoxypenicillanate, the following procedure was found necessary. The ester (70-80 mg) is dissolved in 10 ml of CH2 Cl2 and the solution cooled to -77° (CO2 -acetone) before the addition of 0.5 ml of trifluoroacetic acid. The solution was warmed to approximately -10° (NaCl-H2 O-ice) and stirred at that temperature for 5-6 hr. The solution was cooled to -77° and 75-100 ml of benzene added. After the contents of the flask solidified the acid was isolated by freeze drying and bioassayed without purification.
The protective groups of the penicillin and cephalosporin esters were removed as described above and the resulting free acids were tested in vitro for bioactivity.

Sarcina lutea = assay: Minimum inhibitory concentration in vitro, Sarcina lutea; assay type: cell-based; details: free acids tested after removal of ester protective group
Method: as §1, §2, §3, §4
(§5) If purification is required, it is done in the same manner as described for removal of the trichloroethyl group (see above). […]

[2] = literature; cited from earlier work
[3] = tested on: certain Gram-negative organisms; details: background; cited from earlier work
[4] = tested on: Staphylococcus aerus (Roche); assay: Minimum inhibitory concentration in vitro, Staphylococcus aerus (Roche); assay type: cell-based; parameters: unit not given here; details: free acids tested after removal of ester protective group
Method: as §1, §2, §3, §4, §5

[5] = tested on: certain resistant staphylococci; details: background; cited from earlier work

In the case of `COC1(SC(=O)Cc2ccccc2)C(=O)N2C(C(=O)OC(C)(C)C)=C(COC(C)=O)CSC21` (stereo not drawn) [tert-Butyl 7β-(phenylacetylthio)-7α-methoxycephalosporanate], the “Minimum Inhibitory Concentration” value [1] was less than 6.25 and the “Minimum Inhibitory Concentration” value (Sarcina lutea) was 100 mg/mL.

For `CC1(C)S[C@@H]2[C@@H](OC(=O)COc3ccccc3)C(=O)N2[C@H]1C(=O)O` [6α-phenoxyacetoxypenicillanic acid], the biological activity [2] is given as “exhibits no biological activity”.

In the case of `CC1(C)S[C@@H]2[C@H](NC(=O)C(C(=O)O)c3ccccc3)C(=O)N2[C@H]1C(=O)O` (some centres unmarked) [carbenicillin], the “broadened spectra of activity, Gram-negative organisms” value [3] is listed as “broadened the spectra to activity to include use against certain Gram-negative organisms”.

In the case of `COC(=O)SC1(OC)C(=O)N2C(C(=O)OC(C)(C)C)=C(COC(C)=O)CSC21` (stereo not drawn) [t-Butyl 7β-(methoxycarbothio)-7α-methoxycephalosporanate], the “Minimum Inhibitory Concentration” value [4] was 50, the “Minimum Inhibitory Concentration” value [1] was 50 and the “Minimum Inhibitory Concentration” value (Sarcina lutea) was 25 mg/mL.

In the case of `COc1cccc(OC)c1C(=O)N[C@@H]1C(=O)N2[C@@H]1SC(C)(C)[C@@H]2C(=O)O` [methicillin], the “activity against certain resistant staphylococci” value [5] is given as “good activity”.

For `COC1(SC(=O)OCC(Cl)(Cl)Cl)C(=O)N2C(C(=O)OC(c3ccccc3)c3ccccc3)C(C)(C)SC21` (stereo not drawn) [Benzhydryl 6β-(β,β,β-trichloroethoxycarbothio)6α-methoxypenicillanate], the “Minimum Inhibitory Concentration” value [1] was 100.

With `COC1(SC(=O)Cc2cccs2)C(=O)N2C(C(=O)OC(C)(C)C)=C(COC(C)=O)CSC21` (stereo not drawn) [tert-Butyl 7β-(thiophene-2-acetylthio)-7α-methoxycephalosporanate] the “Minimum Inhibitory Concentration” value [1] was 50.

In the case of `CC1(C)S[C@@H]2[C@H](NC(=O)[C@H](N)c3ccccc3)C(=O)N2[C@H]1C(=O)O` [ampicillin], the “broadened spectra of activity, Gram-negative organisms” value [3] is listed as “broadened the spectra to activity to include use against certain Gram-negative organisms”.
